Patent publication US12187706B2, “NLRP3 modulators” (INNATE TUMOR IMMUNITY, INC., priority 2019, dated 2025)

How the values were obtained:
Type in all cases: cell-based
[1] = biological target: T1, NLRP3 (Homo sapiens, UniProt Q96P20); test: Measurement of IL-1β production in PMA-differentiated THP-1 cells (NLRP3 hIL1B)
T1 construct: host or cells: PMA-differentiated THP-1 cells
In short: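 THP-1 cells differentiated with PMA, then replated in RPMI with 2% FBS and exposed to compound for 4 h (alternative: 2 h; hTRF protocol: 2 h at 37 °C, top concentration 10 μM). Supernatant IL-1β was quantified by ELISA or HTRF. Final DMSO 1%, with vehicle control.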

[2] = biological target: T2, human TLR7 (Homo sapiens, UniProt Q9NYK1); test: In vitro human TLR7 reporter assay (HEK-Blue, NF-kB/AP1-inducible SEAP); settings: HEK-Blue TLR7 cells, SEAP reporter; read-out: TLR7 Agonist EC50 value
T2 construct: host or cells: human HEK-Blue cells with NF-kB/AP1-inducible SEAP reporter
T2 sequence (Q9NYK1 27-1049): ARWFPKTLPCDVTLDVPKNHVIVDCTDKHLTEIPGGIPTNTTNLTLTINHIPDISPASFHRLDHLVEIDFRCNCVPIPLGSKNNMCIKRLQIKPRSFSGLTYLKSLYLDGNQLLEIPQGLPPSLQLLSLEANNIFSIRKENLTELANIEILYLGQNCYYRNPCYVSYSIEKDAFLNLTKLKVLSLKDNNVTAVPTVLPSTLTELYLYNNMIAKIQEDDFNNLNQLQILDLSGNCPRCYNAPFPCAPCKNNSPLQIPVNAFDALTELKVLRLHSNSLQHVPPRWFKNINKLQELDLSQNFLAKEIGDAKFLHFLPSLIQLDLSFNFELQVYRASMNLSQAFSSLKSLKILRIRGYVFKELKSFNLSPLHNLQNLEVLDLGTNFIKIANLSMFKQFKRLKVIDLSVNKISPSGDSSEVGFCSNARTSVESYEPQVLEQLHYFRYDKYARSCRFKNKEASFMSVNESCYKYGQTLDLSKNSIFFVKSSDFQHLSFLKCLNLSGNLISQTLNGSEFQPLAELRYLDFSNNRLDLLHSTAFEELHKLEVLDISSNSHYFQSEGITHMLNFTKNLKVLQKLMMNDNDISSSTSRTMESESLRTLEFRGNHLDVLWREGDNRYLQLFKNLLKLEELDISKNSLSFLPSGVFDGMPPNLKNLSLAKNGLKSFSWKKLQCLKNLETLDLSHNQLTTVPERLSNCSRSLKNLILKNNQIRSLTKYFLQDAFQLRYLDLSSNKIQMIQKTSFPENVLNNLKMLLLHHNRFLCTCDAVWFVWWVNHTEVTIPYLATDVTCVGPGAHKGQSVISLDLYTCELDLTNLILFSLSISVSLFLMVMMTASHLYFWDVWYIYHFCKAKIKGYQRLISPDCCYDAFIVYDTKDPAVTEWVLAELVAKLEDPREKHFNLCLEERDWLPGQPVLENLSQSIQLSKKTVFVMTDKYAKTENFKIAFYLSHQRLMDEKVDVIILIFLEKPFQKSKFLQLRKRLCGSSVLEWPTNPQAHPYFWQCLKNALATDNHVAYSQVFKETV
Method: (§1) In Vitro Human TLR7 and TLR8 Binding Reporter Assays Logarithmically-growing human HEK-Blue cells co-expressing a TLR7 or TLR8 gene and a NF-kB/AP1-inducible SEAP (secreted embryonic alkaline phosphatase; […] Cellular SEAP production is measured using an Envision plate reader instrument thirty minutes after adding freshly-made Quanti-Blue reagent (prepared by following manufacturer instructions; Invivogen, San Diego, CA) to the HEK-Blue TLR Nf-kB-SEAP cell reactions. All EC50 values (half-maximal effective concentration) are determined using proprietary data analysis software.

[3] = biological target: T3, human TLR8 (Homo sapiens, UniProt Q9NR97); test: In vitro human TLR8 reporter assay (HEK-Blue, NF-kB/AP1-inducible SEAP); settings: at 62.5 μM
T3 construct: host or cells: human HEK-Blue cells with NF-kB/AP1-inducible SEAP reporter
T3 sequence (Q9NR97 27-1041): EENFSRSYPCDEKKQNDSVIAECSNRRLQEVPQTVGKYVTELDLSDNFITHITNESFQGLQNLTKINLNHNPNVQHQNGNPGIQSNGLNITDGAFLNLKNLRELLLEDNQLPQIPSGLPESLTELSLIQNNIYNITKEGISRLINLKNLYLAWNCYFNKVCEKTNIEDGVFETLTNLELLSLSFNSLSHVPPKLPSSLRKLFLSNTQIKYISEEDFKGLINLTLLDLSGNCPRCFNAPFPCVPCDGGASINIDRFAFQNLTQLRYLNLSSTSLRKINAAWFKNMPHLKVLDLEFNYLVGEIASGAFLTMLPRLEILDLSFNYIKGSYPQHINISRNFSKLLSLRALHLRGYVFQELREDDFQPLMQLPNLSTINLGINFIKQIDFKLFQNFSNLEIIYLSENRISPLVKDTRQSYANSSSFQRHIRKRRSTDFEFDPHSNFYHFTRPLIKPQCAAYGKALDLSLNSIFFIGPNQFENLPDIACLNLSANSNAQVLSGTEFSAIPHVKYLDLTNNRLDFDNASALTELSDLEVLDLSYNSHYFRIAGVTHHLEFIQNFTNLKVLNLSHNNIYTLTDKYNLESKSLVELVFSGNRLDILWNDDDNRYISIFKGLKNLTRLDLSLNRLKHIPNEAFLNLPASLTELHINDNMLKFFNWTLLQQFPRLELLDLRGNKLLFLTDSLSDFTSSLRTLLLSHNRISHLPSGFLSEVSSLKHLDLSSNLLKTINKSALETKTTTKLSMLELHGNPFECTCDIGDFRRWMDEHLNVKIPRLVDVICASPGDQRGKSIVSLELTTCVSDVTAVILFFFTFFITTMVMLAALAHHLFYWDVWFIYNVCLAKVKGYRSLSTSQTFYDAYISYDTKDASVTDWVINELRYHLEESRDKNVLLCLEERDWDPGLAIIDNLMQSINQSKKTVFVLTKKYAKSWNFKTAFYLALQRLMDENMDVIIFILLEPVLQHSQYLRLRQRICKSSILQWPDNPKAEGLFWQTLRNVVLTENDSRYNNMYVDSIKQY
Method: as §1

T1 sequence (Q96P20 whole entry): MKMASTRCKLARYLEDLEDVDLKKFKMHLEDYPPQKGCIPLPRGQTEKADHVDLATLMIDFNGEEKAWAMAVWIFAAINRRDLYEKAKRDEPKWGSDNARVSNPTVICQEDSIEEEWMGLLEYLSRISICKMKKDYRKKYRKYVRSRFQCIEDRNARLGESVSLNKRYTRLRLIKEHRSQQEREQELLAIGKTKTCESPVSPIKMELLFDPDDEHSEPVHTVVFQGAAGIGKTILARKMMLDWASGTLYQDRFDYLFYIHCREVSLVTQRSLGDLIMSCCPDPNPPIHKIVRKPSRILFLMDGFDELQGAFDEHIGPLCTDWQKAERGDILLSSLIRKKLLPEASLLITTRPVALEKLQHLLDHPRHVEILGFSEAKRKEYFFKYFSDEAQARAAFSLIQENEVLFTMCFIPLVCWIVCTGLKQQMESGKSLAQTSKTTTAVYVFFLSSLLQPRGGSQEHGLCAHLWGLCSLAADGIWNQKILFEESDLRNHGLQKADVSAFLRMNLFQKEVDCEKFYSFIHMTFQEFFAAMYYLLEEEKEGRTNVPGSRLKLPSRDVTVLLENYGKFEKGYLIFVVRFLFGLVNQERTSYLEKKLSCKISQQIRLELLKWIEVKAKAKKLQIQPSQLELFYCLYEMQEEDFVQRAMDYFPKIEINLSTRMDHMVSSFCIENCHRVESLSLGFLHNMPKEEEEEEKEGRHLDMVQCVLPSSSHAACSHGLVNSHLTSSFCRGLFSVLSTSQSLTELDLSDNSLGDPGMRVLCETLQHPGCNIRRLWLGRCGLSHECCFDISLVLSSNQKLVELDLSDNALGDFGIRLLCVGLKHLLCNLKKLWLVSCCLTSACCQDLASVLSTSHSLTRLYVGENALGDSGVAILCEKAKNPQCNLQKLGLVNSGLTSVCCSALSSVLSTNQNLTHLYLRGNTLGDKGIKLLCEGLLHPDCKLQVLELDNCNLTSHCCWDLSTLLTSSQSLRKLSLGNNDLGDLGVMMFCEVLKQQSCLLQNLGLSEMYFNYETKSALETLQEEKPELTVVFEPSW

CCCCNc1nc(N)nc2cc(-c3ccn[nH]3)ccc12 [Example 92]
EC50 [1]: 200 nM
EC50 [2]: > 1000 nM

CCCC(CCO)Nc1nc(N)nc2cc(-c3ccn[nH]3)ccc12 (racemic) [Example 96, rac-3-((2-amino-7-(1H-pyrazol-5-yl)quinazolin-4-yl)amino)hexan-1-ol]
EC50 [1]: 690 nM
EC50 [2]: 1000 to 20000 nM

CCCCCNc1nc(N)nc2cc(-c3ccn[nH]3)ccc12 [Example 93]
EC50 [1]: 270 nM
EC50 [2]: 1000 to 20000 nM

CCCC(CCO)Nc1nc(N)nc2cc(-c3ccn[nH]3)ccc12 (single isomer, unassigned) [Example 97, 3-((2-amino-7-(1H-pyrazol-5-yl)quinazolin-4-yl)amino)hexan-1-ol]
EC50 [1]: 710 nM
EC50 [2]: 1000 to 20000 nM

CCCCCNc1nc(N)nc2cc(-c3cc[nH]n3)cc(F)c12 [Example 125]
EC50 [1]: 710 nM
EC50 [2]: 1000 to 20000 nM

Cn1c(CCNc2nc(N)nc3cc(-c4ccn[nH]4)ccc23)nc2ccccc21 [Example 165]
TLR8 activity [3]: < 50%
EC50 [1]: 4120 nM

Nc1nc(N[C@H]2COC[C@@H](O)C2)c2ccc(-c3ccn[nH]3)cc2n1 (single isomer, unassigned) [Example 13]
EC50 [1]: 1180 nM

Cc1noc(C)c1CNc1nc(N)nc2cc(-c3ccn[nH]3)ccc12 [Example 81]
EC50 [1]: 1200 nM

Nc1nc(N[C@H]2CC[C@H](O)C2)c2ccc(-c3ccn[nH]3)cc2n1 [Example 47]
EC50 [1]: 550 nM

Nc1nc(NCC2CCC(=O)N2)c2ccc(-c3ccn[nH]3)cc2n1 (single isomer, unassigned) [Example 6, 5-(((2-amino-7-(1H-pyrazol-5-yl)quinazolin-4-yl)amino)methyl)pyrrolidin-2-one]
EC50 [1]: 2110 nM

CN1CC[C@H](Nc2nc(N)nc3cc(-c4ccn[nH]4)ccc23)C1 [Example 139]
EC50 [1]: 1770 nM

COC(CO)CNc1nc(N)nc2cc(-c3ccn[nH]3)ccc12 (single isomer, unassigned) [Example 203, 3-((2-amino-7-(1H-pyrazol-5-yl)quinazolin-4-yl)amino)-2-methoxypropan-1-ol]
EC50 [1]: 450 nM

CC(C)(CO)CNc1nc(N)nc2cc(-c3ccn[nH]3)ccc12 [Example 73]
EC50 [1]: 230 nM

Nc1nc(Nc2cc(CCO)[nH]n2)c2ccc(-c3ccn[nH]3)cc2n1 [Example 116]
EC50 [1]: 500 nM

Cn1ccnc1C(O)CNc1nc(N)nc2cc(-c3ccn[nH]3)ccc12 (single isomer, unassigned) [Example 150, 2-((2-amino-7-(1H-pyrazol-5-yl)quinazolin-4-yl)amino)-1-(1-methyl-1H-imidazol-2-yl)ethan-1-ol]
EC50 [1]: 2450 nM

COc1cc(-c2cc[nH]n2)cc2nc(N)nc(NCCO)c12 [Example 131]
EC50 [1]: 5610 nM

Nc1nc(N[C@@H]2CC[C@@H](O)[C@@H]2O)c2ccc(-c3ccn[nH]3)cc2n1 (racemic) [Example 110]
EC50 [1]: 640 nM

COCC(COC)Nc1nc(N)nc2cc(-c3ccn[nH]3)ccc12 [Example 79]
EC50 [1]: 1200 nM
EC50 [2]: 20000 to 100000 nM

CCOCCNc1nc(N)nc2cc(-c3ccn[nH]3)ccc12 [Example 103]
EC50 [1]: 370 nM

Nc1nc(N[C@H]2CCCC[C@H]2CO)c2ccc(-c3ccn[nH]3)cc2n1 (racemic) [Example 57]
EC50 [1]: 800 nM

CCCCC(CCO)Nc1nc(N)nc2cc(-c3ccn[nH]3)ccc12 (single isomer, unassigned) [Example 100, 3-((2-amino-7-(1H-pyrazol-5-yl)quinazolin-4-yl)amino)heptan-1-ol]
EC50 [1]: 450 nM
EC50 [2]: 1000 to 20000 nM

CCCCC(CCO)Nc1nc(N)nc2cc(-c3ccn[nH]3)ccc12 (racemic) [Example 99, rac-3-((2-amino-7-(1H-pyrazol-5-yl)quinazolin-4-yl)amino)heptan-1-ol]
EC50 [1]: 740 nM
EC50 [2]: 1000 to 20000 nM

CC(C)(O)C(O)CNc1nc(N)nc2cc(-c3ccn[nH]3)ccc12 (single isomer, unassigned) [Example 10, 1-((2-amino-7-(1H-pyrazol-5-yl)quinazolin-4-yl)amino)-3-methylbutane-2,3-diol]
EC50 [1]: 1860 nM

CN(C)CC(O)CNc1nc(N)nc2cc(-c3ccn[nH]3)ccc12 (stereo not shown) [Example 40]
EC50 [1]: 2240 nM

Nc1nc(NC2CCCOC2)c2ccc(-c3ccn[nH]3)cc2n1 (stereo not shown) [Example 105]
EC50 [1]: 1980 nM

Nc1nc(NCC(O)CC(F)(F)F)c2ccc(-c3ccn[nH]3)cc2n1 (stereo not shown) [Example 41]
EC50 [1]: 760 nM

Nc1nc(NCCCCCO)c2ccc(-c3ccn[nH]3)cc2n1 [Example 86]
EC50 [1]: 220 nM

Nc1nc(NC2C[C@@H](O)[C@H](O)C2)c2ccc(-c3ccn[nH]3)cc2n1 (racemic) [Example 109]
EC50 [1]: 1950 nM

Nc1nc(NCc2ncccn2)c2ccc(-c3ccn[nH]3)cc2n1 [Example 51]
EC50 [1]: 320 nM

Nc1nc(N[C@H]2C[C@H](O)C[C@@H]2O)c2ccc(-c3cc[nH]n3)cc2n1 (racemic) [Example 118]
EC50 [1]: 980 nM

C[C@]1(O)C[C@H](Nc2nc(N)nc3cc(-c4ccn[nH]4)ccc23)C1 [Example 192, (trans)-3-((2-amino-7-(1H-pyrazol-5-yl)quinazolin-4-yl)amino)-1-methylcyclobutan-1-ol]
EC50 [1]: 370 nM

Nc1nc(NCc2cncs2)c2ccc(-c3ccn[nH]3)cc2n1 [Example 175]
EC50 [1]: 730 nM

COCc1noc(CNc2nc(N)nc3cc(-c4ccn[nH]4)ccc23)n1 [Example 76]
EC50 [1]: 760 nM

CC(C)(O)C(O)CNc1nc(N)nc2cc(-c3ccn[nH]3)ccc12 (racemic) [Example 8, rac-1-((2-amino-7-(1H-pyrazol-5-yl)quinazolin-4-yl)amino)-3-methylbutane-2,3-diol]
EC50 [1]: 2150 nM
